Assay results: patent US10160762B2, “6-alkyl dihydropyrazolopyrimidinone compounds as PDE2 inhibitors” (Merck Sharp & Dohme Corp., priority 2015, dated 2018)
Read-outs that look alike come from different tables or passages of the source.

Biological target: T1, Rhesus PDE2A3 (Macaca mulatta, UniProt B3VTJ2)
T1 construct: made in house; host or cells: AD293 cells, transient transfection; supernatant of sonicated lysate
T1 sequence (B3VTJ2 1-941): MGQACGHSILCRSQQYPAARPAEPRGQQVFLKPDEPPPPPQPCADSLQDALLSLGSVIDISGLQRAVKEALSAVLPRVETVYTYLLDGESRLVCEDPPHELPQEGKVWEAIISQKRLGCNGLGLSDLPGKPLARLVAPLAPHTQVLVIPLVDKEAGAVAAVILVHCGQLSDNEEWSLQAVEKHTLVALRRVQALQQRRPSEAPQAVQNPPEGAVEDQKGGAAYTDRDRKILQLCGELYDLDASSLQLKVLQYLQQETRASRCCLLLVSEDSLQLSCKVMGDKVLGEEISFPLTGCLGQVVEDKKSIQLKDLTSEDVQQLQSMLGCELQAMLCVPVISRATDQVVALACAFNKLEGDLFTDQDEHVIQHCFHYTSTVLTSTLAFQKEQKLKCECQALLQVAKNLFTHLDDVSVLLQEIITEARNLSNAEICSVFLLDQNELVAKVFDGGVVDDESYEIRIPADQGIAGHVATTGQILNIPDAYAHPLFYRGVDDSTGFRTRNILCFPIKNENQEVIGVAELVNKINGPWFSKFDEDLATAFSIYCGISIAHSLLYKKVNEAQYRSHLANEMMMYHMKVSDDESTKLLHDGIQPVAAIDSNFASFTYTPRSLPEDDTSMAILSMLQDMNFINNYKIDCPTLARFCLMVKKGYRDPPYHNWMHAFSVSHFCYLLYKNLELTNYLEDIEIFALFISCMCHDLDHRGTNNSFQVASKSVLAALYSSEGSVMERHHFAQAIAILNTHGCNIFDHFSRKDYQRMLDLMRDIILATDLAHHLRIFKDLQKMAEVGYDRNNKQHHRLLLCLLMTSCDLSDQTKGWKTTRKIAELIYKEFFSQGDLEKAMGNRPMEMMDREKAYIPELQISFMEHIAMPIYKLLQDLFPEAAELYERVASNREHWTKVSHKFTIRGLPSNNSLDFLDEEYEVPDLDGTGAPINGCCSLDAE
Assay: PDE2 fluorescence polarization (IMAP FP) inhibition assay, rhesus PDE2A3
Type: biochemical, rhesus macaque
Procedure, shortened: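 Enzyme source was the lysate supernatant of AD293 cells transiently expressing rhesus PDE2A3, diluted to give 20% conversion of 50 nM FAM-cAMP, with 1 µM cGMP as activator. Buffer was 10 mM Tris pH 7.2, 10 mM MgCl2, 1 mM DTT.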

[1] = Lab A, read-out: Rhesus PDE2 Ki (nM) Lab A
[2] = Lab B, read-out: Rhesus PDE2 Ki (nM) Lab B

Row | SMILES | Ki [1] [nM] | Ki [2] [nM]
1 | Cc1nc2c(c(CF)nn2C(C)c2ccc(C(F)(F)F)c(F)c2)c(=O)[nH]1 (stereo not shown) [Example 230, 1-(1-(3-Fluoro-4-(trifluoromethyl)phenyl)ethyl)-3-(fluoromethyl)-6-methyl-1H-pyrazolo[3,4-d]pyrimidin-4(5H)-one] | 2.3 | 3.4
2 | Cc1nc2c(c(CF)nn2C(C)c2ccc(C(C)(C)C)cc2)c(=O)[nH]1 (single isomer, unassigned) [Example 214, (R)- or (S)-1-(1-(4-tert-Butylphenyl)ethyl)-3-(fluoromethyl)-6-methyl-1H-pyrazolo[3,4-d]pyrimidin-4(5H)-one] | 179 | 318
3 | COc1cccc(Cc2nc3c(c(C)nn3C(C)c3ccc(C(F)(F)F)cc3)c(=O)[nH]2)c1 (stereo not shown) [Example 45, 6-(3-Methoxybenzyl)-3-methyl-1-{1-[4-(trifluoromethyl)phenyl]ethyl}-1,5-dihydro-4H-pyrazolo[3,4-d]pyrimidin-4-one] | 26 | –
4 | Cc1nn(C(C)c2ccc(C(F)(F)F)cc2)c2nc(C3CCCC3)[nH]c(=O)c12 (stereo not shown) [Example 40, 6-Cyclopentyl-3-methyl-1-{1-[4-(trifluoromethyl)phenyl]ethyl}-1,5-dihydro-4H-pyrazolo[3,4-d]pyrimidin-4-one] | 340 | –
5 | Cc1nc2c(c(CO)nn2C(C)c2ccc(C(F)(F)F)cc2)c(=O)[nH]1 (stereo not shown) [Example 7, 3-(Hydroxymethyl)-6-methyl-1-(1-(4-(trifluoromethyl)phenyl)ethyl)-1H-pyrazolo[3,4-d]pyrimidin-4(5H)-one] | 19 | –
